Test results from patent US20240182874A1, “NOVEL FAMILY OF DNA POLYMERASES ACCEPTING 2-AMINOADENINE AND REJECTING ADENINE IN THEIR SUBSTRATES” (THE EUROPEAN SYNDICATE OF SYNTHETIC SCIENTISTS AND …, priority 2021, published 2024).

Key:
Assay in all cases: Single nucleotide extension assay, steady-state kinetics (Table 2)
[1] = biological target: T1, Acinetobacter phage SH-Ab 15497 DpoZ DNA polymerase (SEQ ID NO: 113), His-tagged, 3′-exonuclease-disabled mutant D74A (Acinetobacter phage SH-Ab 15497, UniProt A0A2H5BHJ5, D74A); assay type: biochemical; conditions: for Efficiency: catalytic efficiency, average and standard deviation of three independent assays
T1 construct: 3'-exonuclease-disabled D74A
T1 sequence (A0A2H5BHJ5 1-624 D74A): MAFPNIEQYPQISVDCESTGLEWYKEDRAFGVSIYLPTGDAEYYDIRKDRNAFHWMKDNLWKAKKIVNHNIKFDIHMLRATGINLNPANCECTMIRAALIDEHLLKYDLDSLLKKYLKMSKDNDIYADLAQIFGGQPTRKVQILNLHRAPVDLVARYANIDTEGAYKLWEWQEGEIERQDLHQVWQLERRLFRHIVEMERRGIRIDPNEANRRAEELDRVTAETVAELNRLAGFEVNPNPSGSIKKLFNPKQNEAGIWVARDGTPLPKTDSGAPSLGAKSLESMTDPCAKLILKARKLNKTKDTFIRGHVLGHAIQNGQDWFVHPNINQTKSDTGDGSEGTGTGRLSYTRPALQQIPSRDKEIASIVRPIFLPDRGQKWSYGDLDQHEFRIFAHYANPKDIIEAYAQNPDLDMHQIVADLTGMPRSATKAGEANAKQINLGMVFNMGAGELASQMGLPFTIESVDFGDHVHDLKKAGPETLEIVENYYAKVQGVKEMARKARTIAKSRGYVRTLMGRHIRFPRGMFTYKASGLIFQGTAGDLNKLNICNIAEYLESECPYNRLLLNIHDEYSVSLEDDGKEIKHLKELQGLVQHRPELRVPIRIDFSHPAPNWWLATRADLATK
From the text: (§1) DpoZ genes from each bacteriophage were also cloned in the P15A plasmid pVDM18 previously described (Pezo et al., Sci Rep. 3, 1359 (2013)). Exonuclease mutants were constructed by site directed mutagenesis of pVDM18 Pol constructs using X1379/X1380 oligonucleotides for Vibrio phage PhiVC8 DNA pol (D85A mutation), X1865/X1866 for Arthrobacter phage Wayne DNA pol (D146A mutation), X1990/X1991 for Acinetobacter phage SH-Ab-15497 (D74A mutation), X1867/X1868 for Gordonia phage Ghobes DNA pol (D109A mutation) and X1601/X1602 for Klenow fragment of E. coli DNA pol I (D101A mutation). Mutations were verified by full sequencing of the constructs. These mutants were also sub-cloned into the pGEN452 vector downstream a His6-tag for protein expression
(§2) Kinetic parameters were determined in a single nucleotide extension assay using DNA polymerase mutants devoid of 3′exonuclease activity, followed by denaturing polyacrylamide gel electrophoresis of the extended products essentially as described (O'Flaherty and Guengerich, Current Protocols in Nucleic Acid Chemistry. 59 (2014)). The fluorescent oligonucleotide X1648 was annealed to X1649 template. Duplex substrates were used at 500 nM concentration in reaction buffer (20 mM TrisHCl pH7, 200 mM NaCl, 2 mM DTT, 5 mM MgCl2), with different enzymes concentrations and various dNTPs concentrations. Reactions were performed at 37° C. for variable times in conditions to remain in the confines of the steady-state kinetic model e.g. remaining below 20% of product formation (Creighton et al., Methods in Enzymology (Elsevier, 1995; https://linkinghub.elsevier.com/retrieve/pii/0076687995620214), vol. 262, pp. 232-256).
(§3) • The Km affinity constant and the kcat turnover number of 3′-exonuclease-disabled and His-tagged versions of DpoZ polymerases from Vibrio phage PhiVC8 and Acinetobacter phage SH-Ab 15497 are shown in comparison with PolA polymerase (Klenow fragment) from E. coli. The average and standard deviation of three independent assays carried out under the same conditions are given for each experiment.

[2] = biological target: T2, E. coli PolA polymerase (Klenow fragment of E. coli DNA pol I, SEQ ID NO: 234), His-tagged, 3′-exonuclease-disabled mutant D101A (Escherichia coli, UniProt P00582, D424A); assay type: biochemical; conditions: for Efficiency: catalytic efficiency, average and standard deviation of three independent assays
T2 construct: 3'-exonuclease-disabled
From the text: as §1, §2, §3

[3] = biological target: T3, Vibrio phage PhiVC8 DpoZ DNA polymerase (SEQ ID NO: 112), His-tagged, 3′-exonuclease-disabled mutant D85A (Vibrio phage phiVC8, UniProt G3FFN8, D85A); assay type: biochemical; conditions: for Efficiency: catalytic efficiency, average and standard deviation of three independent assays
T3 construct: 3'-exonuclease-disabled D85A
T3 sequence (G3FFN8 1-633 D85A): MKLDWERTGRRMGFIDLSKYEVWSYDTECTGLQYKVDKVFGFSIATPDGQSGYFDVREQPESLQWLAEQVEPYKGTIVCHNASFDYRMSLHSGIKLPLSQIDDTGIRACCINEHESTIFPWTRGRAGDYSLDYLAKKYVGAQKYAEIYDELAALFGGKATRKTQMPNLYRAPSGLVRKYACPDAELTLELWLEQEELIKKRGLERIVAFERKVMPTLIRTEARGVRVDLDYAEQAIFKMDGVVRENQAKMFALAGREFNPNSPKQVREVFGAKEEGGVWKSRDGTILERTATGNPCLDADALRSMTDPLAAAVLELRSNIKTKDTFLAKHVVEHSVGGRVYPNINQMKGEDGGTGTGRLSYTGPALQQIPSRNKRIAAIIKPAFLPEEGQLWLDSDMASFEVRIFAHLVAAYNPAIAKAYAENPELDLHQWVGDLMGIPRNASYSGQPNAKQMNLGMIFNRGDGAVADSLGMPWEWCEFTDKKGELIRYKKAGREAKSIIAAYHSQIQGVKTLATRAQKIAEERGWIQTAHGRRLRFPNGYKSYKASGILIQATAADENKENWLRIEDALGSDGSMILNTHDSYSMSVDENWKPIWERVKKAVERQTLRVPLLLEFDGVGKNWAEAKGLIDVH
From the text: as §1, §2, §3

[4] = system: T4, Nc1nc(N)c2ncn([C@H]3C[C@H](O)[C@@H](COP(=O)(O)OP(=O)(O)OP(=O)(O)O)O3)c2n1; assay type: biochemical, Acinetobacter phage SH-Ab 15497; conditions: other: 37° C., pH7, 500 nM duplex X1648/X1649, average and standard deviation of three independent assays, pH 7.0
T4 construct: 3'-exonuclease-disabled D74A
From the text: as §1, §2, §3

[5] = system: T5, Nc1ncnc2c1ncn2[C@H]1C[C@H](O)[C@@H](COP(=O)(O)OP(=O)(O)OP(=O)(O)O)O1; assay type: biochemical, Acinetobacter phage SH-Ab 15497; conditions: other: 37° C., pH7, 500 nM duplex X1648/X1649, average and standard deviation of three independent assays, pH 7.0
T5 construct: 3'-exonuclease-disabled D74A
From the text: as §1, §2, §3

[6] = system: T6, Nc1nc(N)c2ncn([C@H]3C[C@H](O)[C@@H](COP(=O)(O)OP(=O)(O)OP(=O)(O)O)O3)c2n1; assay type: biochemical, Vibrio phage PhiVC8; conditions: other: 37° C., pH7, 500 nM duplex X1648/X1649, average and standard deviation of three independent assays, pH 7.0
T6 construct: 3'-exonuclease-disabled D85A
From the text: as §1, §2, §3

[7] = system: T7, Nc1ncnc2c1ncn2[C@H]1C[C@H](O)[C@@H](COP(=O)(O)OP(=O)(O)OP(=O)(O)O)O1; assay type: biochemical, Vibrio phage PhiVC8; conditions: other: 37° C., pH7, 500 nM duplex X1648/X1649, average and standard deviation of three independent assays, pH 7.0
T7 construct: 3'-exonuclease-disabled D85A
From the text: as §1, §2, §3

T2 sequence (P00582 with tags, fused parts or gaps D424A): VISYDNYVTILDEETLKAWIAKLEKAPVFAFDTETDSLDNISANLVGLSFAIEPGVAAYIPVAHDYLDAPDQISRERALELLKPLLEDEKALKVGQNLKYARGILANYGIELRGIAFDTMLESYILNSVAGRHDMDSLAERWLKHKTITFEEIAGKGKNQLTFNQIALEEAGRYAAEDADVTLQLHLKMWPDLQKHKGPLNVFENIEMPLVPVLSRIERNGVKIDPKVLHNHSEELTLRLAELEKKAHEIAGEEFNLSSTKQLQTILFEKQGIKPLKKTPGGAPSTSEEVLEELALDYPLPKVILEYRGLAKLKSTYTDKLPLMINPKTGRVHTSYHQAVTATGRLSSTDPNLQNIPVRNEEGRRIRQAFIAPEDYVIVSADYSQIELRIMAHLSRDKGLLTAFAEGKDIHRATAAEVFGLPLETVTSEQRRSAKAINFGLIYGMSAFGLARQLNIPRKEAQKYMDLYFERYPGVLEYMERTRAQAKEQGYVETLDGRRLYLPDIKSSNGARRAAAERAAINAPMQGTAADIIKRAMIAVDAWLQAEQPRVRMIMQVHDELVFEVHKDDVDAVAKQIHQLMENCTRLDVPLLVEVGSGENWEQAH

With `Nc1nc(N)c2ncn([C@H]3C[C@H](O)[C@@H](COP(=O)(O)OP(=O)(O)OP(=O)(O)O)O3)c2n1` [dZTP, 2-amino-2′-deoxyadenosine 5′-triphosphate] the “factor in catalytic efficiency with dZTP relative to dATP” value (shortened to “factor … with dZTP relative to dATP”) [1] was 29 -fold, the Efficiency [1] was 0.23 ± 0.06 mM⁻¹ s⁻¹ and the “kcat^(Z)/kcat^(A)” value ([1]; kcat dZTP / kcat dATP) was 1.81. The “factor … with dZTP relative to dATP” value [2] was 0.5 -fold, the Efficiency [2] was 17.73 ± 4.96 mM⁻¹ s⁻¹ and the “kcat^(Z)/kcat^(A)” value ([2]; kcat dZTP / kcat dATP) was 0.68. For the same molecule, the “factor … with dZTP relative to dATP” value [3] was 90 -fold, the Efficiency [3] was 4.35 ± 1.56 mM⁻¹ s⁻¹ and the “kcat^(Z)/kcat^(A)” value ([3]; kcat dZTP / kcat dATP) was 2.00.

“Acinetobacter phage SH-Ab 15497 DpoZ DNA polymerase (SEQ ID NO: 113), His-tagged, 3′-exonuclease-disabled mutant D74A (Acinetobacter phage SH-Ab 15497; D74A)” showed a Km [4] of 1300 ± 360 µM, a kcat [4] of 0.29 ± 0.07 s⁻¹ and a Km [5] of 21400 ± 3400 µM. The kcat [5] was 0.16 ± 0.01 s⁻¹.

`Nc1ncnc2c1ncn2[C@H]1C[C@H](O)[C@@H](COP(=O)(O)OP(=O)(O)OP(=O)(O)O)O1` [dATP, deoxyadenosine 5′-triphosphate] was tested, and the Efficiency [1] was 0.008 ± 0.001 mM⁻¹ s⁻¹, the Efficiency [2] was 30.40 ± 5.82 mM⁻¹ s⁻¹ and the Efficiency [3] was 0.048 ± 0.017 mM⁻¹ s⁻¹.

In the case of “Vibrio phage PhiVC8 DpoZ DNA polymerase (SEQ ID NO: 112), His-tagged, 3′-exonuclease-disabled mutant D85A (Vibrio phage phiVC8; D85A)”, the Km [6] is reported as 100 ± 20 µM, the kcat [6] is reported as 0.42 ± 0.14 s⁻¹ and the Km [7] is reported as 4500 ± 1380 µM. It also gave a kcat [7] of 0.21 ± 0.05 s⁻¹.
